Legend:
[1] = target: T1, DGAT1 (human small intestinal microsomal preparation) (Homo sapiens, UniProt O75907); experiment: Cell-free DGAT1 enzyme assay (LC-MS readout); format: biochemical
T1 construct: using a human small intestinal microsomal preparation (BD Biosciences) as the enzyme source; tissue BD Biosciences; host or cells: human small intestine microsomes
T1 sequence (O75907 1-488): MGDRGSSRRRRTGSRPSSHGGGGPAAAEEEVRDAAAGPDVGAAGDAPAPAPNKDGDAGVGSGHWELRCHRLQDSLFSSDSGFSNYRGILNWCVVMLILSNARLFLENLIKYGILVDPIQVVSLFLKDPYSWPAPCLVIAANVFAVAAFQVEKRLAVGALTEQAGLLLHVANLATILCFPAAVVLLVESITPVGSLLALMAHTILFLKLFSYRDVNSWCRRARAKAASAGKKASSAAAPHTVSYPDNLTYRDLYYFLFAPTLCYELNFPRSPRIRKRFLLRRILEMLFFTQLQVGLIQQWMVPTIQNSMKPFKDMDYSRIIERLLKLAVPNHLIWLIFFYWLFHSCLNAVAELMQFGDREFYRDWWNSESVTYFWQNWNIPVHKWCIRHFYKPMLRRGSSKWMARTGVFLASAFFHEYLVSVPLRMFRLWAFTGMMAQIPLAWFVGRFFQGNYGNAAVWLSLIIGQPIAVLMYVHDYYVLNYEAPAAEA
Experimental: A cell-free DGAT1 assay was established using a human small intestinal microsomal preparation (BD Biosciences) as the enzyme source, and dioleoyl glycerol and palmitoleoyl Coenzyme A (CoA) as substrates (Sigma). Dioleoyl glycerol was dissolved in DMSO and diluted to 600 μM with 175 mM Tris–HCl and 100 mM MgCl2 (Tris/MgCl2) buffer. Palmitoleoyl CoA was dissolved in1.5 % acetone water solution (Fisher Scientific) to 150 μM. Microsomes were diluted to 25 μg/mL with 3.5 mg/mL BSA in Tris MgCl2 buffer. To a 1.5 mL tube, 67 μL of each palmitoleoyl CoA s and dioleoyl glycerol solutions (1:1 ratio) were added and the reaction was initiated by the addition of 67 μL of microsomes. The reaction was incubated in a 37 °C water bath for 60 min. The reaction was stopped by the addition of 1 mL of extraction solvent (isopropanol:dichloromethane (1:1 v/v) with 2.4 % formic acid) containing 1 μg/mL internal standard (glyceryl triolein, Sigma) to each tube and mixed by vortexing. The tubes were centrifuged at 10,000Xg for 3 min. 500 μL of the bottom phase was filtered through a Millex-HV syringe driven filter unit with tube outlet (PVDF @ 0.45 μm, Millipore) and transferred to LC-MS vials (12x32 mm glass screw neck, preslit cap & PTFE/silicone septa, Waters). Phytochemicals (Sigma), botanical extracts and positive control were diluted in DMSO and added to the reaction with the substrates at the desired concentration. The DGAT1 inhibitor A922500 (Tocris) was used as positive control at a concentration of 40 nM.
Refer to Table 3 for the mobile phase program. Solvent A: 0.1 % ammonium acetate in water; Solvent B: 0.1 % acetic acid in acetonitrile; Solvent C: 0.1 % acetic acid in isopropanol; all solvents were from Fisher Scientific. Injection volume: 10 μL. Column: Acquity BEH C18 1.7 μm, 2.1 x 50 mm. Effluent from the column was directed to the electrospray source of the mass spectrometer. Electrospray conditions: positive ion mode; cone voltage: […]; desolvation temperature: 450 °C; source temperature: 140 °C; nebulizer gas flow: 800 L/h; cone gas flow: 10 L/h. The mass spectrometer was operated at 20,000 resolving power and scans from m/z 100–1200 were acquired with a cycle time of 0.25 s. Selected ion chromatograms were plotted for the following: m/z 875 representing the ammoniated molecular ion for triacylglycerol reaction product containing 2 oleic acid and 1 palmitoleic acid moieties (C18:1/C18:1/C16:1); m/z 903 for the ammoniated molecular ion of glyceryl triolein (C18:1/C18:1/C18:1) internal standard. Quantification was determined based on area counts of the product relative to the internal standard.
Dose response curves for the cell-free DGAT1 assay were fitted with a log (inhibitor) vs. response, variable slope (four parameters) equation. Cellular DGAT1 assay data is shown as mean ± standard error of mean (SEM) and was analyzed by two-way ANOVA with Bonferroni's multiple comparison test. The primary outcome variable, serum TG level, is presented as mean ± SEM of baseline (fasting) subtracted change in serum TG after the HFM challenge. Area under the curve (AUC) was determined using the trapezoidal method. Comparisons between groups were made using unpaired t-test with Welch’s correction. A significant effect of investigational product was defined as P < 0.05. All statistical analyses were done using Prism-Graph Pad Software (San Diego, CA).

[2] = test system: DGAT1 activity / TG synthesis in HEK293H cells; experiment: Cellular DGAT1 assay: [14C]-glycerol incorporation into TG; format: cell-based, human
Source text: Three different cell lines, human colorectal (HT-29), human embryonic kidney (HEK293H) and human hepatic (HEPG2) were screened for the presence of both DGAT1 and DGAT2 protein. The HEK293H cell line contained DGAT1 and little to no DGAT2 protein (Additional file 1: Figure S1), therefore, a cellular DGAT1 assay was established in HEK293H cells to measure the synthesis of TG. HEK293 cell line has previously been reported to contain only DGAT1 and not DGAT2, and has been validated as an in vitro model to determine TG synthesis via DGAT1 [34].
The DGAT1 activity was determined by measuring the incorporation of [^14C]-glycerol (1 μCi/mL, Perkin-Elmer) into [^14C]-TG during a 5 h incubation with 0.3 mM oleic acid/BSA in HEK293H cells. […] Silica gel spots corresponding to lipid species were scraped into scintillation vials and the incorporated radioactivity was quantified using a MicroBeta TriLux (Perkin-Elmer). […]
Dose response curves for the cell-free DGAT1 assay were fitted with a log (inhibitor) vs. response, variable slope (four parameters) equation. Cellular DGAT1 assay data is shown as mean ± standard error of mean (SEM) and was analyzed by two-way ANOVA with Bonferroni's multiple comparison test. […] Area under the curve (AUC) was determined using the trapezoidal method. […]

[3] = single phytochemicals, mean of duplicates

Row | Molecule | IC50 [1, 3] [nM] | other results
1 | O=C(O[C@@H]1Cc2c(O)cc(O)cc2O[C@@H]1c1cc(O)c(O)c(O)c1)c1cc(O)c(O)c(O)c1 [EGCG, Epigallocatechin Gallate] | 667 | –
2 | Oc1cc(O)c2cc(O)c(-c3ccc(O)c(O)c3)[o+]c2c1 [Cyanidin Chloride] | 3060 | –
3 | O=C(Nc1ccccc1)Nc1ccc(-c2ccc(C(=O)[C@@H]3CCC[C@H]3C(=O)O)cc2)cc1 [A-922500] | – | oleic acid induced DGAT1 enzyme activity as measured by 14C label TG levels [2]: inhibited; IC50 ([1]; synthetic inhibitor): 40 nM; IC50 ([1]; synthetic inhibitor, listed as A922500): 39.9 nM
4 | O=C(O)c1cc(O)c(O)c(O)c1 [Gallic Acid] | 2670 | –
5 | Punicalagins | 259 | –
6 | O=c1oc2c(O)c(O)cc3c(=O)oc4c(O)c(O)cc1c4c23 [Ellagic Acid] | 3450 | –

Reference: article PMC4526202, “Identification of a botanical inhibitor of intestinal diacylglyceride acyltransferase 1 activity via in vitro screening and a parallel, randomized, blinded, placebo-controlled clinical trial” (Nutrition & Metabolism, 2015)
